Experimental data: US4474775A, “Pyrazol-4-yl phosphates and insecticidal and acaricidal use” (priority 1979, dated 1984)

Legend:
[1] = Oral acute toxicity in mice (Toxicological Test); conditions: mouse, in vivo, five-week aged ddY-SLC strained male mice
From the text: Below tabulated are the oral acute toxicity values obtained with five-week aged, ddY-SLC strained male mice: […]

Spodoptera litura = assay: Effectiveness against Spodoptera litura (Testing Example 2); assay type: in vivo; conditions: second-instar larvae, 500 ppm spray on soybean, 28° C., 24 hours
Procedure: Testing Example 2: Effectiveness against Spodoptera litura
Twenty milliliters of a 500 ppm, water-diluted solution (with Dyne® Takeda Chem. Ind. Ltd., spreading agent, as diluted 3000-fold) of the test compound (the emulsifiable concentrate of Example 6) was sprayed on grown seedlings (10 days after germination) of soybean plant water-cultured in a polyethylene cup by the use of a spray gun (nozzle pressure of 1 kg/cm^2 gauge) in a spraying chamber. 2 hours after spraying, two main leaves of soybean plant were cut off and were placed into two cups (6 cm in diameter and 4 cm in depth), respectively, and ten second-instar larvae of Spodoptera litura were liberated. The cups were left in the room (28° C.) for 24 hours, and the dead larvae were counted.

Laodelphax striatellus [2] = assay: Effectiveness against Laodelphax striatellus, adults, dust on paddy-rice plant (Testing Example 1 (b)); assay type: in vivo; conditions: small brown planthopper, adults on dusted rice, 24 h
Procedure: (§1) Testing Example 1: Effectiveness against Laodelphax striatellus
(b) A test compound was processed into a dust preparation in accordance with the formulation of Example 8, and […] of the preparation was dusted on the potted paddy-rice plant (1/5,000 a) by the Berger Duster method. After dusting, leaves (15 cm long) of the paddy rice were cut off and were placed in a test tube containing 1 ml of water in the bottom, and ten adults of Laodelphax striatellus were released therein. After allowing the test tube to stand in the room (28° C.) for 24 hours, the dead insects were counted.

Tetranychus urticae = assay: Effectiveness against Tetranychus urticae (Testing Example 4); assay type: in vivo; conditions: decrease rate grade, 500 ppm spray on kidney bean plant; for Efficacy grading, 2nd day: 2nd day after spraying; for Efficacy grading, 7th day: 7th day after spraying
Procedure: Testing Example 4: Effectiveness against Tetranychus urticae
A test compound was processed into an emulsifiable concentrate in accordance with the formulation of Example 6, and diluted with water (with Dyne®, spreading agent, as diluted 3000-fold) to prepare a 500 ppm aqueous solution. Ten female adults of Tetranychus urticae) were infected on the seedling of a kidney bean plant water-cultured in a polyethylene cup, and the cups were placed in a glass chamber (28° C.) for 24 hours, followed by spraying 20 ml of the aqueous solution on the kidney bean plant. After the sprayed cup was placed again in the glass chamber, the number of the adults and larvae living on the leaves was counted on the 2nd and 7th days after spraying. The test was repeated twice, and the test results are tabulated in Table 5 in terms of the efficacy grading as determined by calculating a decrease rate by the following equation:
Decrease rate (%)=[(number of mites tested-number of larvae living on the day of inspection)/(number of mites tested)]×100

Laodelphax striatellus [3] = assay: Effectiveness against Laodelphax striatellus, third-instar larvae, root dip (Testing Example 1 (a)); assay type: in vivo; conditions: 40 ppm emulsifiable concentrate dilution, root dip 2 hours, 28° C., 24 hours, read-out: Mortality (I)
Procedure: as §1
(a) A test compound was processed into an emulsifiable concentrate in accordance with the formulation of Example 6, followed by diluting with water to prepare a treating solution of a 40 ppm concentration. 2.5 ml of the treating solution was placed into a test tube (with 1.7 cm of diameter, 4 cm deep), in which three seedlings of a paddy-rice plant (on the 7th day after germination) were allowed to stand so their root portions were dipped into the solution for 2 hours. The seedlings were then transferred into a test tube having 1 ml water placed in the bottom, and ten third-instar larvae of Laodelphax striatellus were released. After allowing the test tube to stand in the room (28° C.) for 24 hours, the dead larvae were counted. The test is repeated twice, and the test results are tabulated, in terms of mortality, in Table 2 (I).

Structure (SMILES) | LD50 [1] | mortality at 500 ppm (Spodoptera litura) | Mortality (II) (Laodelphax striatellus [2]) | Efficacy grading, 2nd day (Tetranychus urticae) | Efficacy grading, 7th day (Tetranychus urticae) | mortality at 40 µg/mL (Laodelphax striatellus [3])
CCCSP(=S)(OCC)Oc1cnn(-c2cccc(C(F)(F)F)c2)c1 (stereo not shown) [compound 28] | > 300 mg/kg | 100% |  |  |  | 
CCCSP(=O)(OCC)Oc1cnn(-c2ccccc2C)c1 (stereo not shown) [compound 22] | ~300 mg/kg | 100% | 63% | 3 (Not less than 90) | 3 (Not less than 90) | 85%
CCOP(=S)(OCC)Oc1cnn(-c2ccc(Cl)cc2)c1 [compound 15] | > 300 mg/kg |  |  | 3 (Not less than 90) | 0 (Not more than 20) | 
CCCSP(=S)(OCC)Oc1cnn(-c2cccc(Cl)c2)c1 (stereo not shown) [compound 14] | > 300 mg/kg | 100% |  | 3 (Not less than 90) | 0 (Not more than 20) | 
CCCSP(=O)(OCC)Oc1cnn(-c2ccc3c(c2)OCO3)c1 (stereo not shown) [compound 41] | 50 to 300 mg/kg | 100% |  | 3 (Not less than 90) | 3 (Not less than 90) | 
CCCSP(=O)(OCC)Oc1cnn(-c2ccc(F)cc2)c1 (stereo not shown) [compound 18] | > 300 mg/kg | 100% | 100% | 3 (Not less than 90) | 3 (Not less than 90) | 100%
CCCSP(=S)(OCC)Oc1cnn(-c2ccc(Cl)c(Cl)c2)c1 (stereo not shown) [compound 32] | > 300 mg/kg | 100% |  | 3 (Not less than 90) | 3 (Not less than 90) | 
CCCSP(=S)(OCC)Oc1cnn(-c2ccccc2)c1 (stereo not shown) [Compound No. 5, O-ethyl-O-(1-phenylpyrazol-4-yl)-S-n-propyl phosphorothiolothionate] | > 300 mg/kg | 100% |  | 3 (Not less than 90) | 3 (Not less than 90) | 
CCCSP(=O)(OCC)Oc1cnn(-c2ccc(I)cc2)c1 (stereo not shown) [compound 20] | > 300 mg/kg | 100% | 65% | 3 (Not less than 90) | 3 (Not less than 90) | 100%
CCCSP(=O)(OCC)Oc1cnn(-c2ccc(CCC)cc2)c1 (stereo not shown) [compound 24] | > 300 mg/kg | 100% | 50% | 3 (Not less than 90) | 3 (Not less than 90) | 85%
CCCSP(=O)(OCC)Oc1cnn(-c2cc(Cl)c(Cl)cc2Cl)c1 (stereo not shown) [compound 42] | > 300 mg/kg | 100% | 40% | 3 (Not less than 90) | 3 (Not less than 90) | 100%
CCCSP(=S)(OCC)Oc1cnn(-c2ccc(Br)cc2)c1 (stereo not shown) [compound 10] | > 300 mg/kg | 100% |  | 3 (Not less than 90) | 3 (Not less than 90) | 
CCCSP(=O)(OCC)Oc1cnn(-c2cccc(Cl)c2)c1 (stereo not shown) [compound 13] | > 300 mg/kg | 100% | 90% | 3 (Not less than 90) | 3 (Not less than 90) | 100%
CCCSP(=S)(OCC)Oc1cnn(-c2cc([N+](=O)[O-])ccc2C)c1 (stereo not shown) [compound 40] | > 300 mg/kg | 100% |  |  |  | 
CCCSP(=S)(OCC)Oc1cnn(-c2ccc(Cl)cc2)c1 (stereo not shown) [Compound No. 17] | > 300 mg/kg | 100% | 35% | 3 (Not less than 90) | 3 (Not less than 90) | 100%
CCCSP(=O)(OCC)Oc1cnn(-c2ccc(Cl)cc2C)c1 (stereo not shown) [compound 38] | > 300 mg/kg | 100% |  | 3 (Not less than 90) | 3 (Not less than 90) | 

Structure (SMILES) | LD50 [1] | mortality at 500 ppm (Spodoptera litura) | Mortality (II) (Laodelphax striatellus [2]) | Efficacy grading, 2nd day (Tetranychus urticae) | Efficacy grading, 7th day (Tetranychus urticae) | mortality at 40 µg/mL (Laodelphax striatellus [3])
CCCSP(=O)(OCC)Oc1cnn(-c2cc([N+](=O)[O-])ccc2C)c1 (stereo not shown) [compound 39] | > 300 mg/kg | 100% |  |  |  | 
CCCSP(=O)(OCC)Oc1cnn(-c2ccc(Br)cc2)c1 (stereo not shown) [Compound No. 9] | > 300 mg/kg | 100% | 75% | 3 (Not less than 90) | 3 (Not less than 90) | 100%
CCCOP(=S)(OCC)Oc1cn(-c2ccccc2)nc1C(=O)OCC (stereo not shown) [compound 6] | > 300 mg/kg |  | 70% |  |  | 97%
CCCSP(=O)(OCC)Oc1cn(-c2ccccc2)nc1C(=O)OCC (stereo not shown) [compound 7] | > 300 mg/kg | 100% |  | 3 (Not less than 90) | 3 (Not less than 90) | 
CCCSP(=O)(OCC)Oc1cnn(-c2ccc(Cl)cc2)c1 (stereo not shown) [Compound No. 16, O-ethyl-O-[1-(4-chlorophenyl)pyrazol-4-yl]-S-n-propyl phosphorothiolate] | > 300 mg/kg | 100% | 75% | 3 (Not less than 90) | 3 (Not less than 90) | 97%
CCCSP(=O)(OCC)Oc1cnn(-c2ccc(Cl)cc2F)c1 (stereo not shown) [compound 37] | > 300 mg/kg | 100% | 90% | 3 (Not less than 90) | 3 (Not less than 90) | 100%
CCCSP(=O)(OCC)Oc1cnn(-c2c(C)cccc2C)c1 (stereo not shown) [compound 36] | > 300 mg/kg | 100% |  | 3 (Not less than 90) | 3 (Not less than 90) | 
CCOP(=S)(OCC)Oc1cnn(-c2ccccc2Cl)c1 [compound 11] | > 300 mg/kg |  |  | 3 (Not less than 90) | 0 (Not more than 20) | 
CCCSP(=O)(OCC)Oc1cnn(-c2ccc(C)cc2)c1 (stereo not shown) [compound 23] | 50 to 300 mg/kg | 100% |  | 3 (Not less than 90) | 3 (Not less than 90) | 
CCOP(=S)(OCC)Oc1cnn(-c2ccccc2C)c1 [compound 21] | > 300 mg/kg |  |  | 3 (Not less than 90) | 0 (Not more than 20) | 
CCCSP(=O)(OCC)Oc1cnn(-c2cccc(C(F)(F)F)c2)c1 (stereo not shown) [compound 27] | 50 to 300 mg/kg | 100% |  |  |  | 
CCCSP(=S)(OCC)Oc1cnn(-c2ccc(F)cc2)c1 (stereo not shown) [compound 19] | > 300 mg/kg | 100% |  | 3 (Not less than 90) | 3 (Not less than 90) | 
CCCSP(=O)(OCC)Oc1cnn(-c2ccc(SC)cc2)c1 (stereo not shown) [compound 26] | > 300 mg/kg | 100% |  |  |  | 
CCCSP(=S)(OCC)Oc1cnn(-c2ccc(Cl)cc2Cl)c1 (stereo not shown) [compound 30] | > 300 mg/kg | 100% |  | 3 (Not less than 90) | 3 (Not less than 90) | 
CCCSP(=S)(OCC)Oc1cn(-c2ccccc2)nc1C(=O)OCC (stereo not shown) [compound 8] | > 300 mg/kg | 100% |  | 3 (Not less than 90) | 0 (Not more than 20) | 
CCCSP(=S)(OCC)Oc1cnn(-c2cc(Cl)c(Cl)cc2Cl)c1 (stereo not shown) [compound 43] | > 300 mg/kg | 100% | 40% | 3 (Not less than 90) | 3 (Not less than 90) | 85%
